Data as given in paper PMC6261043, “Characterization of a heat responsive UDP: Flavonoid glucosyltransferase gene in tea plant (Camellia sinensis)” (PLoS ONE, 2018).

biological target: T1, UGT73A17 (rUGT73A17, CsUGT73A17) (Camellia sinensis, UniProt W6JMN6, L296I/A466V, form not given); experiment: HPLC product quantification, Lineweaver-Burk; type: biochemical; conditions: UDP-glucose as sugar donor, 100 mM Tris-HCl pH 7.0, 30°C
T1 construct: gene CsUGTC1; full-length ORF (1422 bp, 473 residues) from tea EST library, N-terminal MBP fusion (pMAL-c2X), E. coli Novablue, purified
T1 sequence (W6JMN6 entry or part of it L296I/A466V, form open): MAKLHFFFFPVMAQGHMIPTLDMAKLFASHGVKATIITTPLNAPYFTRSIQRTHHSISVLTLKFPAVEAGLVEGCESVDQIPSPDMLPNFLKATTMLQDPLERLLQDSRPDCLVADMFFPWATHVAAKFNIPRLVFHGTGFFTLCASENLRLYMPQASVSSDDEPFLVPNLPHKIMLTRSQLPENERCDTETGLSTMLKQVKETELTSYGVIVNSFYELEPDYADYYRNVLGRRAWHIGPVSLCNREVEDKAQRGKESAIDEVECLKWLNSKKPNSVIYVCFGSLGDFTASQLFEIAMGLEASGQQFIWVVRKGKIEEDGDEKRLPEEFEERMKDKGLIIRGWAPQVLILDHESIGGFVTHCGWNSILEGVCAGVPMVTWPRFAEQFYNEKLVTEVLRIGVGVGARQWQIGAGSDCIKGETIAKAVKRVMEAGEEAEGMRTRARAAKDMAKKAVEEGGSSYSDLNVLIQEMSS

| Compound | Km |
| --- | --- |
| O=c1cc(-c2ccc(O)cc2)oc2cc(O)cc(O)c12 [apigenin] | 5.5 ± 1.5 µM |
| O=c1cc(-c2cc(O)c(O)c(O)c2)oc2cc(O)cc(O)c12 [tricetin] | 4.6 ± 0.71 µM |
| O=C(O[C@H]1Cc2c(O)cc(O)cc2O[C@H]1c1ccc(O)c(O)c1)c1cc(O)c(O)c(O)c1 [epicatechin gallate] | 77 ± 5.9 µM |
| O=C1C[C@@H](c2ccc(O)cc2)Oc2cc(O)cc(O)c21 [naringenin] | 9.5 ± 5 µM |
| O=c1c(O)c(-c2ccc(O)cc2)oc2cc(O)cc(O)c12 [kaempferol] | 5.2 µM |
| O=c1cc(-c2ccc(O)c(O)c2)oc2cc(O)cc(O)c12 [luteolin] | 3.2 µM |
| O=c1c(O)c(-c2cc(O)c(O)c(O)c2)oc2cc(O)cc(O)c12 [myricetin] | 8.8 ± 4.3 µM |
